For assay [1], the system named is KG-1 cells. Kind of assay: Antiproliferative activity against KG-1 cells (CCK8). The format is cell-based. Particulars: Homo sapiens, 72 h incubation, CCK8 method. The procedure: KG-1 cells in the logarithmic growth phase were diluted in a culture medium (RPMI+10% FBS) and plated onto 96-well plates at 5000 cells/well, and the plates were incubated in an incubator at 37° C. with 5% CO2 for 24 h. 10 mM stock solutions of the test compounds of the present disclosure in DMSO were prepared and diluted with the culture medium to set 9 concentration gradients. 3 replicate wells were set for each concentration. After compound addition, the plates were incubated in an incubator at 37° C. with 5% CO2 for 72 h. The cell proliferation was assessed using the CCK8 method. The cell growth inhibition IC50 values of the compounds were determined using an enzyme labeling method. The IC50 values were calculated using GraphPad Prism 7 software.
The antiproliferative activity of the compounds against KG-1 cells is shown in Table 2, where A represents IC50≤30 nM, B represents 30<IC50≤300 nM, and C represents IC50>300 nM.
In general terms: Tetrazolium assays rely on reduction of a dye to a coloured formazan, in cell work by metabolically active cells.

For assay [2], the target named is T1, GSPT1 protein (Homo sapiens, UniProt P15170+Q96SW2).
T1 construct: Whole cell lysates were prepared; endogenous in cells; host or cells: KG-1 cells
The assay is described as follows: Degradation of GSPT1 in KG-1 cells (Western blot). The format is cell-based. Particulars: compound concentration 200 nM, 4 h incubation. The procedure:
KG-1 cells were grown in an IMDM culture medium (containing 20% FBS). After centrifugation and counting, the cell concentration was adjusted. The cells were plated onto 6-well plates at 10^6 cells/well, with 1350 μL per well. 150 μL of DMSO and the test compounds of the present disclosure (compound concentration: 200 nM) were added. The plates were incubated in an incubator at 37° C. with 5% CO2 for 4 h. The cells were centrifuged, and the culture medium was discarded. PBS was added to wash the cells and then discarded. Whole cell lysates were prepared using a protease inhibitor cocktail (100×, Fude Biological), a protein phosphatase inhibitor cocktail (100×, Fude Biological), Super Nuclease (Beyotime), and a high-intensity RIPA lysis buffer (Thermo Fisher) and placed on ice for 30 min. After centrifugation, the cell debris precipitates were discarded, and the whole cell lysate supernatants were collected and transferred to new centrifuge tubes. After a BCA protein assay, samples were prepared using a 5× loading buffer (Thermo Fisher). The samples were subjected to protein electrophoresis separation in a 4-20% precast gel (SDS-PAGE gel), transferred to a PVDF membrane, blocked with 5% NFDM/TBST at room temperature for 1 h, incubated overnight with primary antibodies at 4° C., and incubated with a secondary antibody at room temperature for 2 h the next day. Signals were detected using a MINICHEMITM imaging system.
• Anti-GSPT1: Abcam ab234433 • Anti-beta actin: Fude Biological FD0060
• Anti-rabbit peroxidase-linked secondary antibody: Fude Biological FDG007
The degradation effects of the compounds on GSPT1 protein are shown in Table 1, where A represents a GSPT1 protein degradation percentage of no less than 70%, B represents a degradation percentage of less than 70% but no less than 30%, and C represents a degradation percentage of less than 30%.
On the technique in general: Immunoblotting shows a protein as a band on a membrane.

A value given as a limit tells only on which side of the number the result lay.

We go through six compounds from patent US20260263459A1, “PHTHALAZINONE GSPT1 PROTEIN DEGRADING AGENT AND USE THEREOF” (CHINA PHARMACEUTICAL UNIVERSITY, priority 2023, published 2026).

T1 sequence (P15170 whole entry): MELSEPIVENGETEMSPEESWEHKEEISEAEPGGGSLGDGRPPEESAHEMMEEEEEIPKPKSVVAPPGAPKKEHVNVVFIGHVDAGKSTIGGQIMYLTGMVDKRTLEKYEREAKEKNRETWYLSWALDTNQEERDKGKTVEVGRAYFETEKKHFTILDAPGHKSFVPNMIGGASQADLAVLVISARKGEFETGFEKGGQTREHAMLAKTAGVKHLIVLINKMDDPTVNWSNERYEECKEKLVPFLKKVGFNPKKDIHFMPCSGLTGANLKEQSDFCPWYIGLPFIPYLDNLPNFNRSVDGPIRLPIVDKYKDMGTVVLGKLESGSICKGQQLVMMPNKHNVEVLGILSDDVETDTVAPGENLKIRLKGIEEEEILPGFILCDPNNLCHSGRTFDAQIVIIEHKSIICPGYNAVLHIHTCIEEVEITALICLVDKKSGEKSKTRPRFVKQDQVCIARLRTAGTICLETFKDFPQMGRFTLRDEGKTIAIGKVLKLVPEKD
T1 sequence (Q96SW2 whole entry): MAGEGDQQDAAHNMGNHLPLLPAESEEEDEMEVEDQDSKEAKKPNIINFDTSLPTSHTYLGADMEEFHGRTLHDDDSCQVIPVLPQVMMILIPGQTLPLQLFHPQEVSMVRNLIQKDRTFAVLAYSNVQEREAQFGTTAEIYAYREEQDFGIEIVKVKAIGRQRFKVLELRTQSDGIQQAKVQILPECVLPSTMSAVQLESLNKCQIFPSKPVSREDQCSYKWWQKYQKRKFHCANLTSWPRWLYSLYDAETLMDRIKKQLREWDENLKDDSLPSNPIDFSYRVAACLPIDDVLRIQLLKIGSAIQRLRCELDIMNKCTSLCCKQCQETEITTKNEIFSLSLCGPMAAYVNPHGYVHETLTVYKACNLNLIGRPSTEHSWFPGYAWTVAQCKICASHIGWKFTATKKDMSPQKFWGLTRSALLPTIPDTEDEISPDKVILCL
T1 sequence (Q16531 whole entry partner): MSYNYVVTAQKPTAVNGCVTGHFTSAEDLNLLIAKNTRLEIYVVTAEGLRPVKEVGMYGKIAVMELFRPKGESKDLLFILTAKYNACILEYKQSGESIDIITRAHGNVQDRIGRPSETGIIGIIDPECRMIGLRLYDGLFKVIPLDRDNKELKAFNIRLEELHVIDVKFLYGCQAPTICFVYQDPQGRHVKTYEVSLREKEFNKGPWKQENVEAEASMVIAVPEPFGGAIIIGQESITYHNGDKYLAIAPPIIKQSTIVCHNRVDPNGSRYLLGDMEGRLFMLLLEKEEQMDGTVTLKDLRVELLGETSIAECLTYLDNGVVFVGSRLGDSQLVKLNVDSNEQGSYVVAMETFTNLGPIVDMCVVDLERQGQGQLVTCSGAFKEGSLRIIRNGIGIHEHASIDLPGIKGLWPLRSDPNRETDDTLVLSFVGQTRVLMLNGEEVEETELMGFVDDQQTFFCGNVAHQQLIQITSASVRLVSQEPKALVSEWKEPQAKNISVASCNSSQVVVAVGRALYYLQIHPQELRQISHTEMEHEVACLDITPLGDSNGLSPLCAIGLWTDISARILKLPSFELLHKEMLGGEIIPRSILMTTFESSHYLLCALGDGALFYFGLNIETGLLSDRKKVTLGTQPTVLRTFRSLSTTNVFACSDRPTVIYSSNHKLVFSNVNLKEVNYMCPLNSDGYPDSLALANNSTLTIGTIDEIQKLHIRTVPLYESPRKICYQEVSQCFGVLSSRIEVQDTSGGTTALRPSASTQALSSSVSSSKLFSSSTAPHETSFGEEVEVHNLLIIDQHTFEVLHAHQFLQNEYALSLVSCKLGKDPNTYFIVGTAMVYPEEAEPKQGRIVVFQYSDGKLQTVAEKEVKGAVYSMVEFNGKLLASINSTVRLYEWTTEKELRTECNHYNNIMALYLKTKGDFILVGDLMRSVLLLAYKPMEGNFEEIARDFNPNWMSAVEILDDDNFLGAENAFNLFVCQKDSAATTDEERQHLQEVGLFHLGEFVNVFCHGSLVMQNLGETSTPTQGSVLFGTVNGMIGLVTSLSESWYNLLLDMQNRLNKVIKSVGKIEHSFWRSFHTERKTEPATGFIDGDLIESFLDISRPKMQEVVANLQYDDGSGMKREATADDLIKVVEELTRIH

Usually IC50 stands for the concentration needed to halve the response being measured. The term inhibition denotes the relative decrease from the control value, in per cent. Read a low inhibition as a weak effect. In assay [1], `O=C1CCC(n2ncc3cc(CNC(=O)C4COc5ccc(OC(F)(F)F)cc5C4)ccc3c2=O)C(=O)N1` (stereo not drawn) [Compound T-23, N-((2-(2,6-Dioxopiperidin-3-yl)-1-oxo-1,2-dihydrophthalazin-6-yl)methyl)-6-(trifluoromethoxy) chromane-3-carboxamide] gave an IC50 of no more than 0.03 µM. In assay [2], this compound had an inhibition at 0.2 µM of no less than 70%.

Turning to `O=C1CCC(n2ncc3cc(CNC(=O)C4CNc5ccccc5C4)ccc3c2=O)C(=O)N1` (stereo not drawn) [Compound T-24, N-((2-(2,6-Dioxopiperidin-3-yl)-1-oxo-1,2-dihydrophthalazin-6-yl)methyl)-1,2,3,4-tetrahydroquinoline-3-carboxamide], in assay [1], the IC50 is 0.03 to 0.3 µM. The same compound gave an inhibition at 0.2 µM in assay [2] of no less than 70%.

`O=C1CCC(n2ncc3cc(NC(=O)C4=Cc5ccccc5OC4)ccc3c2=O)C(=O)N1` (stereo not drawn) [Compound T-25, N-(2-(2,6-Dioxopiperidin-3-yl)-1-oxo-1,2-dihydrophthalazin-6-yl)-2H-chromene-3-carboxamide]: the IC50 in assay [1] fell in the range of 0.03 to 0.3 µM. This compound also registered an inhibition at 0.2 µM in assay [2] of less than 30%.

Take `O=C1CCC(n2ncc3cc(NC(=O)C4=Cc5cc(F)ccc5OC4)ccc3c2=O)C(=O)N1` (stereo not drawn) [Compound T-26, N-(2-(2,6-Dioxopiperidin-3-yl)-1-oxo-1,2-dihydrophthalazin-6-yl)-6-fluoro-2H-chromene-3-carboxamide]: the IC50 in assay [1] is 0.03 to 0.3 µM. The inhibition at 0.2 µM in assay [2] was less than 30%.

In the case of `O=C1CCC(n2ncc3cc(NC(=O)C4=Cc5cc(OC(F)(F)F)ccc5OC4)ccc3c2=O)C(=O)N1` (stereo not drawn) [Compound T-27, N-(2-(2,6-Dioxopiperidin-3-yl)-1-oxo-1,2-dihydrophthalazin-6-yl)-6-(trifluoromethoxy)-2H-chromene-3-carboxamide], the IC50 in assay [1] was 0.03 to 0.3 µM. For the same compound, in assay [2], the inhibition at 0.2 µM was less than 30%.

For `O=C1CCC(n2ncc3cc(NC(=O)C4=Cc5cccc(OC(F)(F)F)c5OC4)ccc3c2=O)C(=O)N1` (stereo not drawn) [Compound T-28, N-(2-(2,6-Dioxopiperidin-3-yl)-1-oxo-1,2-dihydrophthalazin-6-yl)-8-(trifluoromethoxy)-2H-chromene-3-carboxamide], the IC50 in assay [1] fell in the range of 0.03 to 0.3 µM. Further, the inhibition at 0.2 µM in assay [2] fell in the range of 30 to 70%.
